“And” between values parts separate entries of the source, which are not always exact repeats. Equal values may be shown once.
Columns and labels:
Test in all cases: radiometric filter-binding kinase assay, Kinase HotSpot
Settings in all cases: compound 0.5 µM; ATP 10 µM
[1] = target: AXL (human) (UniProt P30530)
[2] = target: BLK (human) (UniProt P51451)
[3] = target: BRSK1 (human) (UniProt Q8TDC3)
[4] = target: CAMK1 (human) (UniProt Q14012)
[5] = target: CDC42BPB (human) (UniProt Q9Y5S2)
[6] = target: CDK4 CCND1 (human) (UniProt P24385+P11802)
Chain of CDK4 CCND1 (human) (P11802 whole entry, looked up): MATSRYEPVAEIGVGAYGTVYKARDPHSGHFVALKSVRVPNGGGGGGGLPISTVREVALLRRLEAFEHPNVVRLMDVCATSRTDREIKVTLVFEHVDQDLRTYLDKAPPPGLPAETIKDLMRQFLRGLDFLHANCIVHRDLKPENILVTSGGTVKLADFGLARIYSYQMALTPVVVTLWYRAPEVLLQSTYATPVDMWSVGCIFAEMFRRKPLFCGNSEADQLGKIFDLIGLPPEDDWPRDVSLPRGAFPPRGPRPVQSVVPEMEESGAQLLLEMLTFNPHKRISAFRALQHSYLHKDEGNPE
Chain of CDK4 CCND1 (human) (P24385 whole entry, looked up): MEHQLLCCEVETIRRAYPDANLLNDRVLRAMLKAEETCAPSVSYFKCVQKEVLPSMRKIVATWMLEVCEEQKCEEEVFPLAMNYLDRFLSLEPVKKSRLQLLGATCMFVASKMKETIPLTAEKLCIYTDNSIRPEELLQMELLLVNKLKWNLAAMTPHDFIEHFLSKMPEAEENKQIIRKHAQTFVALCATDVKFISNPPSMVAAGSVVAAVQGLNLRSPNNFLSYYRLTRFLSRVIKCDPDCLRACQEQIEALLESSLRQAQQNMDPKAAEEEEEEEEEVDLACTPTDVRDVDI

[7] = target: CDK4 CCND3 (human) (UniProt P30281+P11802)
Chain of CDK4 CCND3 (human) (P11802 whole entry, looked up): as the sequence (P11802 whole entry, looked up) above
Chain of CDK4 CCND3 (human) (P30281 whole entry, looked up): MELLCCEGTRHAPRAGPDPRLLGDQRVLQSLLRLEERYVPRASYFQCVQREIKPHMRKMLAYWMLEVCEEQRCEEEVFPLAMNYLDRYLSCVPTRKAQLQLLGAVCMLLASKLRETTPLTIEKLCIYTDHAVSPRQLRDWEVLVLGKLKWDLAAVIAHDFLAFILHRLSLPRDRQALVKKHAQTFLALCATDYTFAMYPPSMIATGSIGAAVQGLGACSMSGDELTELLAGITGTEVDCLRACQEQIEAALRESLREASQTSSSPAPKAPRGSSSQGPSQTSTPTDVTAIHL

[8] = target: CDK5 CDK5R1 p35 (human) (UniProt Q00535+Q15078)
[9] = target: CDK9 CCNT1 (human) (UniProt P50750+O60563)
[10] = target: CLK1 (human) (UniProt P49759)
Chain of CLK1 (human) (P49759 whole entry, looked up): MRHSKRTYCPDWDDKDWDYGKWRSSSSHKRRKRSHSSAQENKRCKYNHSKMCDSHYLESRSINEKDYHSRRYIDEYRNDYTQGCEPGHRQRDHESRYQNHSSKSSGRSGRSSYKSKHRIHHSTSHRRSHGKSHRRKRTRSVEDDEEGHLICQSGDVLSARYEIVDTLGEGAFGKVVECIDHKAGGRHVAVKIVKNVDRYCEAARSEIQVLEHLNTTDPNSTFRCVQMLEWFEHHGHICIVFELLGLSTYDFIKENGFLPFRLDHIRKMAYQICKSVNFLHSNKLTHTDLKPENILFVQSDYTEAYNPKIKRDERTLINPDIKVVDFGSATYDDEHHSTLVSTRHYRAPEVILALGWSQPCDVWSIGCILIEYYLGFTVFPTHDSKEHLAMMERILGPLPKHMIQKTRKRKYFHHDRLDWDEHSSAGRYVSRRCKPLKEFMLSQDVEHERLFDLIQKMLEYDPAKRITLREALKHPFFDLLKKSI

[11] = target: CLK3 (human) (UniProt P49761)
[12] = target: CSNK1A1 (human) (UniProt P48729)
[13] = target: DYRK3 (human) (UniProt O43781)
[14] = target: EPHB4 (human) (UniProt P54760)
[15] = target: FGFR3 (human) (UniProt P22607)
[16] = target: FRK (human) (UniProt P42685)
[17] = target: GRK5 (human) (UniProt P34947)
[18] = target: JAK3 JH1 JH2 (human) (UniProt P52333)
[19] = target: LCK (human) (UniProt P06239)
[20] = target: LIMK1 (human) (UniProt P53667)
[21] = target: LYN (human) (UniProt P07948)
[22] = target: MAP3K3 (human) (UniProt Q99759)
[23] = target: MARK2 (human) (UniProt Q7KZI7)
[24] = target: MUSK (human) (UniProt O15146)
[25] = target: PIM2 (human) (UniProt Q9P1W9)
Chain of PIM2 (human) (Q9P1W9 whole entry, looked up): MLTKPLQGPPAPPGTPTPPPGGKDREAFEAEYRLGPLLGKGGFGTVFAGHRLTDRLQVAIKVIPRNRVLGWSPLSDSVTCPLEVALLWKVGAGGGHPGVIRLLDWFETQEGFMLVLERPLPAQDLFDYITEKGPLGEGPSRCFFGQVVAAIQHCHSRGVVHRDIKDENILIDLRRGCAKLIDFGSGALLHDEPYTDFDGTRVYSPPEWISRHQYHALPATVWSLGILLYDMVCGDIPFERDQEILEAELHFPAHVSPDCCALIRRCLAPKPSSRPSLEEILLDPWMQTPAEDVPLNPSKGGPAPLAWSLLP

[26] = target: PRKD3 (human) (UniProt O94806)
[27] = target: PRKG1 (human) (UniProt Q13976)
[28] = target: RIPK2 (human) (UniProt O43353)
[29] = target: ROCK2 (human) (UniProt O75116)
[30] = target: ROS1 (human) (UniProt P08922)
Chain of ROS1 (human) (P08922 whole entry, looked up): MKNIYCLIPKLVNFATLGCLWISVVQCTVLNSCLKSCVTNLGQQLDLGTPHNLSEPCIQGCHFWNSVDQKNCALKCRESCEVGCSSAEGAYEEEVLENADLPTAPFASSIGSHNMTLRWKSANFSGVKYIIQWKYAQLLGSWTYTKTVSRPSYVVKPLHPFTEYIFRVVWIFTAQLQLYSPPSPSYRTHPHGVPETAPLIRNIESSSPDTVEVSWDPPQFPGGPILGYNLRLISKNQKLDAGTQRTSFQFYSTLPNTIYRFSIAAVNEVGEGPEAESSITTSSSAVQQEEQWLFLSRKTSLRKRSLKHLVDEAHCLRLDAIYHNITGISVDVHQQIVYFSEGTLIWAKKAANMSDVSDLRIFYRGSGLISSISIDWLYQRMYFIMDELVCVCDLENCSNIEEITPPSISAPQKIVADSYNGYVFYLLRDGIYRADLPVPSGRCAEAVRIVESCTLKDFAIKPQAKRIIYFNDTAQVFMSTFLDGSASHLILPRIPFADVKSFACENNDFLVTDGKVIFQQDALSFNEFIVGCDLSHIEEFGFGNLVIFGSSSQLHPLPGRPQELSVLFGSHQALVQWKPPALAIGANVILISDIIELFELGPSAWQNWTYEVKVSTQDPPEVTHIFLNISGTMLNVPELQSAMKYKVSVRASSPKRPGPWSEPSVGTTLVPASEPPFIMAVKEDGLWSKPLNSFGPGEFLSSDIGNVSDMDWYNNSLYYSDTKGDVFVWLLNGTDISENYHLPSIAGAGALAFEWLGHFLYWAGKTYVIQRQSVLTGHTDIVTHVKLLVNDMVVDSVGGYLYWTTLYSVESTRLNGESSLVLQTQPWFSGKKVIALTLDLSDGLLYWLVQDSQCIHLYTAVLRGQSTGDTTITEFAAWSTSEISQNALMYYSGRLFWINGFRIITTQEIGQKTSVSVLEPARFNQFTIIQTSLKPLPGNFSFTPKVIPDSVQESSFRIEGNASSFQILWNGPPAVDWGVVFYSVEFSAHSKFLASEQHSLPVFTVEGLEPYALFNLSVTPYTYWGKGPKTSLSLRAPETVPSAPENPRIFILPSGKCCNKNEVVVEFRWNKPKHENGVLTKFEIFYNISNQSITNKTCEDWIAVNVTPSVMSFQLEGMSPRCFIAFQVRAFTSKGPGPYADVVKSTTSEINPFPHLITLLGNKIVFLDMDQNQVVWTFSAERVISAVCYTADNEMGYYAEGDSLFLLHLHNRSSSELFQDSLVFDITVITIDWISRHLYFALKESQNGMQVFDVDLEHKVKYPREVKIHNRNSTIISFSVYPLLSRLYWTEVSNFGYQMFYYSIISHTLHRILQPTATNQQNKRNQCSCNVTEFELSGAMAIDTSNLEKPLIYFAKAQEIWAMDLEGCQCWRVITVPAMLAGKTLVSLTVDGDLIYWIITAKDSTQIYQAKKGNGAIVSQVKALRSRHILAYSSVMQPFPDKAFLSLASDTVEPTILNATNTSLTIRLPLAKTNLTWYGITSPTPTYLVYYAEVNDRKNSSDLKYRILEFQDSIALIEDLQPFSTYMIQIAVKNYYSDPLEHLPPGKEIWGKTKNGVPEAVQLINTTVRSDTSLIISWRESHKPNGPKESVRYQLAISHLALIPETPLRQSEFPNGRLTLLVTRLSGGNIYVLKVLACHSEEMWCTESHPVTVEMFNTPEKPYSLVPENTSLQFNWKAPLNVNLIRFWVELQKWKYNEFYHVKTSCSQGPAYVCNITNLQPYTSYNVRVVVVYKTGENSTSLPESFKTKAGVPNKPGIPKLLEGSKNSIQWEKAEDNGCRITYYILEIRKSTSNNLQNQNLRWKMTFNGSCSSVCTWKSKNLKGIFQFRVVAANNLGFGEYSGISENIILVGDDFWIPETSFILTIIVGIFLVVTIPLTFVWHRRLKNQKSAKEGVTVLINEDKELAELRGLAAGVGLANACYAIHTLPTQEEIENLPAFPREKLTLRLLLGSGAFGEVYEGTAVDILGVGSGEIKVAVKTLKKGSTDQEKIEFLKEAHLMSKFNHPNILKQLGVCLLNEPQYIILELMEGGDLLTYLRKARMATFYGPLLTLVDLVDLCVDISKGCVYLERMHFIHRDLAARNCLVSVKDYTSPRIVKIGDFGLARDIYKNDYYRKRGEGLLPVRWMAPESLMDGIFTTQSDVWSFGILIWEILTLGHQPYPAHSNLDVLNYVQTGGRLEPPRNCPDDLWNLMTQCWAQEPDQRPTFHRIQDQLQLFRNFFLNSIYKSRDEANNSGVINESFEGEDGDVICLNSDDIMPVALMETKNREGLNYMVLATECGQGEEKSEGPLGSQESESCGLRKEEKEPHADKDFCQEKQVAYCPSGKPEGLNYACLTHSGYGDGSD

[31] = target: RPS6KB1 (human) (UniProt P23443)
[32] = target: RPS6KB2 (human) (UniProt Q9UBS0)
Chain of RPS6KB2 (human) (Q9UBS0 whole entry, looked up): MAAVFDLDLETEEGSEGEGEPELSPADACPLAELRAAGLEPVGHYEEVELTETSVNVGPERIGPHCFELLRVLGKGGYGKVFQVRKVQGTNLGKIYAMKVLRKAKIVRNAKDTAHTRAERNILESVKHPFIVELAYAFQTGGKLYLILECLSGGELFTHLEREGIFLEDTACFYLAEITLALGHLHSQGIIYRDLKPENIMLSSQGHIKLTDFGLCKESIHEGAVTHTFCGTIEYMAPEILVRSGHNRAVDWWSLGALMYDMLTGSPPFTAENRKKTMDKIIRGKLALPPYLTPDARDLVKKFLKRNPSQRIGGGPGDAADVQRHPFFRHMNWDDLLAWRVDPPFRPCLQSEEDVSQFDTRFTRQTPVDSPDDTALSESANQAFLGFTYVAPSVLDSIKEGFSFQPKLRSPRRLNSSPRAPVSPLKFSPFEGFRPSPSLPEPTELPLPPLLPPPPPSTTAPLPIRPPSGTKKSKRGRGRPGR

[33] = target: SGK2 (human) (UniProt Q9HBY8)
Chain of SGK2 (human) (Q9HBY8 whole entry, looked up): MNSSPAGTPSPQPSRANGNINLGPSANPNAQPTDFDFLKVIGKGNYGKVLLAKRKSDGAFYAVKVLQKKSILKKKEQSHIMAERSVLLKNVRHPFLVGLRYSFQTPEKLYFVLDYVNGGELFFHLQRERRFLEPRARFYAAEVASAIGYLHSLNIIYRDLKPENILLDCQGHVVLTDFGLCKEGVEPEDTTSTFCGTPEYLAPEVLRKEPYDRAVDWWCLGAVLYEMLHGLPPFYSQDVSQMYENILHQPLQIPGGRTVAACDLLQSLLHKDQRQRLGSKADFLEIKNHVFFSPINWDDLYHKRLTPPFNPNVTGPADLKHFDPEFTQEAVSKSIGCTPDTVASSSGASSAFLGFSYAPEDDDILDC

[34] = target: STK39 (human) (UniProt Q9UEW8)
[35] = target: TAOK1 (human) (UniProt Q7L7X3)
[36] = target: TGFBR2 (human) (UniProt P37173)
[37] = target: ULK2 (human) (UniProt Q8IYT8)
[38] = target: WNK2 (human) (UniProt Q9Y3S1)
[39] = target: YES1 (human) (UniProt P07947)
[40] = target: ABL1 (human) (UniProt P00519)
[41] = target: DMPK (human) (UniProt Q09013)
[42] = target: CAMK1D (human) (UniProt Q8IU85)

SMILES: COc1cc(Nc2c(C#N)cnc3cc(OCCCN4CCN(C)CC4)c(OC)cc23)c(Cl)cc1Cl
- residual activity [1]: 37.6%
- residual activity [2]: 20.7%
- residual activity [3]: 97.5%
- residual activity [4]: 68.9%
- residual activity [5]: 88.2%
- residual activity [6]: 97.1%
- residual activity [7]: 103%
- residual activity [8]: 98.3%
- residual activity [9]: 87%
- residual activity [10]: 81%
- residual activity [11]: 94.9%
- residual activity [12]: 49.5%
- residual activity [13]: 91.8%
- residual activity [14]: 12.5%
- residual activity [15]: 82.6%
- residual activity [16]: 29.2%
- residual activity [17]: 109%
- residual activity [18]: 88.5%
- residual activity [19]: 1.88%
- residual activity [20]: 96.4%
- residual activity [21]: 2.13% and 6%
- residual activity [22]: 11.8%
- residual activity [23]: 99.9%
- residual activity [24]: 81.7%
- residual activity [25]: 111%
- residual activity [26]: 42.2%
- residual activity [27]: 85.5% and 94.9%
- residual activity [28]: 111%
- residual activity [29]: 85%
- residual activity [30]: 95.4%
- residual activity [31]: 87.7%
- residual activity [32]: 107%
- residual activity [33]: 103%
- residual activity [34]: 93.6%
- residual activity [35]: 52.8%
- residual activity [36]: 95.7%
- residual activity [37]: 92.2%
- residual activity [38]: 94.2%
- residual activity [39]: 7.29%

SMILES: C[C@@H]1CCN(C(=O)CC#N)C[C@@H]1N(C)c1ncnc2[nH]ccc12
- residual activity [40]: 101%
- residual activity [1]: 97.7%
- residual activity [3]: 102%
- residual activity [4]: 99.3%
- residual activity [5]: 95.4%
- residual activity [6]: 94.1%
- residual activity [7]: 99.9%
- residual activity [8]: 99.5%
- residual activity [9]: 100%
- residual activity [10]: 99.5%
- residual activity [11]: 106%
- residual activity [12]: 99.7%
- residual activity [41]: 108%
- residual activity [13]: 106%
- residual activity [14]: 89.8%
- residual activity [15]: 95.3%
- residual activity [16]: 106%
- residual activity [17]: 107%
- residual activity [19]: 80.2%
- residual activity [20]: 82%
- residual activity [21]: 96.3% and 98.6%
- residual activity [22]: 115%
- residual activity [23]: 91.8%
- residual activity [24]: 103%
- residual activity [25]: 116%
- residual activity [26]: 89.8%
- residual activity [27]: 82% and 87.8%
- residual activity [28]: 113%
- residual activity [29]: 69.9%
- residual activity [30]: 94.1%
- residual activity [31]: 103%
- residual activity [32]: 100%
- residual activity [33]: 104%
- residual activity [34]: 95.1%
- residual activity [35]: 99.9%
- residual activity [36]: 98.8%
- residual activity [37]: 92%
- residual activity [38]: 101%
- residual activity [39]: 87.1%

SMILES: O=C1C(Cl)=C(N2C(=O)CCC2=O)C(=O)c2ccccc21
- residual activity [40]: 103%
- residual activity [3]: 96.9%
- residual activity [4]: 98.3%
- residual activity [42]: 102%
- residual activity [5]: 98.6%
- residual activity [6]: 103%
- residual activity [7]: 107%
- residual activity [8]: 93.7%
- residual activity [9]: 101%
- residual activity [10]: 103%
- residual activity [11]: 114%
- residual activity [12]: 99.2%
- residual activity [41]: 98.5%
- residual activity [13]: 95.4%
- residual activity [14]: 98.7%
- residual activity [15]: 106%
- residual activity [16]: 103%
- residual activity [17]: 91.5%
- residual activity [18]: 101%
- residual activity [19]: 106%
- residual activity [20]: 92.5%
- residual activity [21]: 93.5% and 97%
- residual activity [22]: 95.5%
- residual activity [23]: 79.4%
- residual activity [24]: 104%
- residual activity [25]: 123%
- residual activity [26]: 88.2%
- residual activity [27]: 104% and 97.8%
- residual activity [28]: 84.8%
- residual activity [29]: 91.5%
- residual activity [30]: 95.8%
- residual activity [31]: 101%
- residual activity [32]: 102%
- residual activity [33]: 99.5%
- residual activity [34]: 97.3%
- residual activity [35]: 83.1%
- residual activity [36]: 130%
- residual activity [37]: 108%
- residual activity [38]: 108%
- residual activity [39]: 103%

SMILES: Cn1c2ccccc2c2c3c(c4c5ccccc5n(CCC#N)c4c21)CNC3=O
- residual activity [40]: 84.6%
- residual activity [1]: 102%
- residual activity [3]: 20.2%
- residual activity [4]: 94.2%
- residual activity [42]: 82.4%
- residual activity [5]: 92.1%
- residual activity [6]: 27.5%
- residual activity [7]: 44.5%
- residual activity [8]: 8.52%
- residual activity [9]: 46.8%
- residual activity [10]: 69.9%
- residual activity [11]: 23.1%
- residual activity [12]: 75.4%
- residual activity [41]: 101%
- residual activity [13]: 83.9%
- residual activity [14]: 96.3%
- residual activity [15]: 76.7%
- residual activity [16]: 84.7%
- residual activity [17]: 89.1%
- residual activity [18]: 2.44%
- residual activity [20]: 45.3%
- residual activity [21]: 90.3% and 94.4%
- residual activity [22]: 5.86%
- residual activity [23]: 11.8%
- residual activity [24]: 34.8%
- residual activity [25]: 101%
- residual activity [26]: 7.3%
- residual activity [27]: 80.2% and 84.3%
- residual activity [28]: 55.1%
- residual activity [29]: 48.5%
- residual activity [30]: 1.18%
- residual activity [31]: 6.71%
- residual activity [32]: 21.6%
- residual activity [33]: 94%
- residual activity [34]: 96.7%
- residual activity [35]: 43.9%
- residual activity [36]: 117%
- residual activity [37]: 92.9%
- residual activity [38]: 103%
- residual activity [39]: 68.7%

SMILES: N#C/C(=C\c1ccc(O)c(O)c1)C(=O)NCc1ccccc1
- residual activity [40]: 100%
- residual activity [1]: 95.1%
- residual activity [2]: 95.6%
- residual activity [3]: 104%
- residual activity [4]: 93%
- residual activity [42]: 96.4%
- residual activity [5]: 103%
- residual activity [6]: 109%
- residual activity [7]: 98%
- residual activity [8]: 99.8%
- residual activity [9]: 74.9%
- residual activity [10]: 98.6%
- residual activity [11]: 125%
- residual activity [12]: 110%
- residual activity [41]: 99.7%
- residual activity [13]: 99.6%
- residual activity [14]: 88.2%
- residual activity [15]: 98.2%
- residual activity [16]: 97.4%
- residual activity [17]: 108%
- residual activity [19]: 95.7%
- residual activity [20]: 97%
- residual activity [21]: 105% and 99.8%
- residual activity [22]: 102%
- residual activity [23]: 88.2%
- residual activity [24]: 97.9%
- residual activity [25]: 97.1%
- residual activity [26]: 90.2%
- residual activity [27]: 89.2% and 92.6%
- residual activity [28]: 101%
- residual activity [29]: 94%
- residual activity [30]: 101%
- residual activity [31]: 92.8%
- residual activity [32]: 94.7%
- residual activity [33]: 101%
- residual activity [34]: 99.8%
- residual activity [35]: 95.1%
- residual activity [36]: 111%
- residual activity [37]: 106%
- residual activity [38]: 104%
- residual activity [39]: 103%

Source: the kinase profiling compilation of Christmann-Franck et al. (2016)
